In patent publication US12473298B2, “Amide compounds, preparation method therefor, and use thereof in the medical field” (Shanghai Synergy Pharmaceutical Sciences Co., Ltd., priority 2019, dated 2025):
pIC50: −log10 of the molar value. Where two headings read alike, the source gives them in different places.

Columns and labels:
[1] = biological target: Mutant type EZH2(Y641F) (Homo sapiens (Human), UniProt Q15910, Y641F); assay: AlphaLISA, mutant type PRC2 complex EZH2(Y641F); assay type: biochemical; details: read-out: Mutant type EZH2(Y641F) IC50 Nanomoles per Liter
Mutant type EZH2(Y641F), sequence (Q15910 whole entry Y641F): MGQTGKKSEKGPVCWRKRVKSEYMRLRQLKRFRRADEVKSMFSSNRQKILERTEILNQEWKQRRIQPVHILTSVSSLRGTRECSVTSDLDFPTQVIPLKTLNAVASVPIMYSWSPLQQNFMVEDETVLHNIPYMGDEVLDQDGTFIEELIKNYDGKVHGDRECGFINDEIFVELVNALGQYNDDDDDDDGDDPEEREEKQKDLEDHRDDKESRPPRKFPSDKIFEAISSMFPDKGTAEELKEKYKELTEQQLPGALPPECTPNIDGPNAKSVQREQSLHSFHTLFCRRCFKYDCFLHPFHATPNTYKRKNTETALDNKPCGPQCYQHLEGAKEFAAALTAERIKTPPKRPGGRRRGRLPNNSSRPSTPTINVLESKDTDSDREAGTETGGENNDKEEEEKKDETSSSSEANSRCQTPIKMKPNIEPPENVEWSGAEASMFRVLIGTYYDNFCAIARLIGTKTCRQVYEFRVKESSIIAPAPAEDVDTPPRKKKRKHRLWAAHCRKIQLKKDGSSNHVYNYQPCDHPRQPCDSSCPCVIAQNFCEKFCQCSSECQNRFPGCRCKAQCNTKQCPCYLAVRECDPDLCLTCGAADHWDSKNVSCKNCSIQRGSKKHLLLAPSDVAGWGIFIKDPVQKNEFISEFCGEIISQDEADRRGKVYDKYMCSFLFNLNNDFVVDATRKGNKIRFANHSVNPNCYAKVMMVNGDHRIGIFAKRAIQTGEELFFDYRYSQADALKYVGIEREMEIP
Mutant type EZH2(Y641F), sequence (O75530 whole entry partner): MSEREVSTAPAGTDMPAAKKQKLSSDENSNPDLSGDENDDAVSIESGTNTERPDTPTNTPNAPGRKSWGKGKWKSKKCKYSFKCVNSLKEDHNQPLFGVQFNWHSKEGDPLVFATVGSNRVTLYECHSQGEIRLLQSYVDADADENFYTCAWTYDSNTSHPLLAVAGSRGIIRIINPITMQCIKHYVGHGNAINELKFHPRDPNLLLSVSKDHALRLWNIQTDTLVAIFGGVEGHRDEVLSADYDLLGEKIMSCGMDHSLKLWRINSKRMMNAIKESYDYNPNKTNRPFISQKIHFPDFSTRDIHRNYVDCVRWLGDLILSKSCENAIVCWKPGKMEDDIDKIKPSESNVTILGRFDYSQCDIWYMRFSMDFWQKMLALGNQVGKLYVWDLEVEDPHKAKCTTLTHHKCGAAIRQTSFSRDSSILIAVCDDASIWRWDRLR
Mutant type EZH2(Y641F), sequence (Q15022 whole entry partner): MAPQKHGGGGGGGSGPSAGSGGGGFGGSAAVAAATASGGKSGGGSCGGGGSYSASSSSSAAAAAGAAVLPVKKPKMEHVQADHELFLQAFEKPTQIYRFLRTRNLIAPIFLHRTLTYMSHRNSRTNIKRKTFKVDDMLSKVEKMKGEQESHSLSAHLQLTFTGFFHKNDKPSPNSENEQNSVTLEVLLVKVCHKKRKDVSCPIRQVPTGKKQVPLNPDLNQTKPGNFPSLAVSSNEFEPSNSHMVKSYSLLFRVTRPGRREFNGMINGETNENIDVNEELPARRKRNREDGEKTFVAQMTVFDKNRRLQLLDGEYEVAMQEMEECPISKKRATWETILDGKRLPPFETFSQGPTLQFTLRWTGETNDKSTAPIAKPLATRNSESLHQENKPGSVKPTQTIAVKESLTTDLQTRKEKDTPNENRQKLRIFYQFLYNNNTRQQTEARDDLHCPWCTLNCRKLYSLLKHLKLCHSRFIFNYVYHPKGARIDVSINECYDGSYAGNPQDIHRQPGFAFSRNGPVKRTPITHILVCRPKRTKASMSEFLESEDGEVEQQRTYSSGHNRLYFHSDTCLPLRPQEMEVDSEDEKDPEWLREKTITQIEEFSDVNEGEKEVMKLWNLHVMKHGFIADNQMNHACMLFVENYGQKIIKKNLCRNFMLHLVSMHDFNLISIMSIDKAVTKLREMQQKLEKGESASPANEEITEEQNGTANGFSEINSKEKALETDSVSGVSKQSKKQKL
Mutant type EZH2(Y641F), sequence (Q09028 whole entry partner): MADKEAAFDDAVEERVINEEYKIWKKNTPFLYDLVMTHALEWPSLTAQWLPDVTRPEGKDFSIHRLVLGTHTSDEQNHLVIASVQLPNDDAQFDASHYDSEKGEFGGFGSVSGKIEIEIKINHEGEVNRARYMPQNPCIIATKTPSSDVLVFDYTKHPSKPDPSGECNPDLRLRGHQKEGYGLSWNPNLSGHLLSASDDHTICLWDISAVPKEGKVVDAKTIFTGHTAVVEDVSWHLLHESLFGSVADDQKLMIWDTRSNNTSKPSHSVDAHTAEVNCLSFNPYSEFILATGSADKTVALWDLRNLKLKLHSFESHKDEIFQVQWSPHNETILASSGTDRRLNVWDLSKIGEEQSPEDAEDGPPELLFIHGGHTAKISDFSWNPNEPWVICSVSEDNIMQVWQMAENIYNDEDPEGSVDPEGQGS
Mutant type EZH2(Y641F), sequence (Q6ZN18 whole entry partner): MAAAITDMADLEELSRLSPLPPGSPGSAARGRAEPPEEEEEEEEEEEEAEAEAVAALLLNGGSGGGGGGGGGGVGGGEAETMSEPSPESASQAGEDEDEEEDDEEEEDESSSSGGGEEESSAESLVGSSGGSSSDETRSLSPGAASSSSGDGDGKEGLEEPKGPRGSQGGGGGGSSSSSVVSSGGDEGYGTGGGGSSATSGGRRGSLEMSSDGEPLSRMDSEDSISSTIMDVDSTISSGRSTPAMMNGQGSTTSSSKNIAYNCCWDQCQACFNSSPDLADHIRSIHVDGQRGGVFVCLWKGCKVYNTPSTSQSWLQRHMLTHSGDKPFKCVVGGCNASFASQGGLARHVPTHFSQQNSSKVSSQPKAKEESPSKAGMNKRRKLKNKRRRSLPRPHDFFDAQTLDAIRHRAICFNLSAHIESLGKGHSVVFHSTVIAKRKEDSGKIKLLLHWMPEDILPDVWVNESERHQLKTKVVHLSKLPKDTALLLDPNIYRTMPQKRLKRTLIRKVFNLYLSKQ

[2] = Pharmacokinetic experiment in rats; assay type: in vivo, SD rats; details: for AUC: read-out: Area Curve (AUC, ng/mL · h)
Description: A certain amount of compound was weighted and dissolved in 0.1% Tween under vortex and ultrasound, and 0.5% carboxymethyl cellulose sodium (CMC-NA) solution was added to form a uniform solution.

[3] = biological target: Mutant type EZH2(A677G) (Homo sapiens (Human), UniProt Q15910, A677G); assay: AlphaLISA, mutant type PRC2 complex EZH2(A677G); assay type: biochemical; details: read-out: Mutant type EZH2(A677G) IC59 Nanomoles per Liter
Mutant type EZH2(A677G), sequence (Q15910 whole entry A677G): as the sequence (Q15910 whole entry Y641F) above, with F641Y, A677G counted along it
Mutant type EZH2(A677G), sequence (O75530 whole entry partner): as the sequence (O75530 whole entry partner) above
Mutant type EZH2(A677G), sequence (Q15022 whole entry partner): as the sequence (Q15022 whole entry partner) above
Mutant type EZH2(A677G), sequence (Q09028 whole entry partner): as the sequence (Q09028 whole entry partner) above
Mutant type EZH2(A677G), sequence (Q6ZN18 whole entry partner): as the sequence (Q6ZN18 whole entry partner) above

[4] = test system: human diffuse large B-cell lymphoma cells (Karpas 422 cell); assay: Karpas 422 cell proliferation, Calcein AM staining; assay type: cell-based; details: data of 14th day, read-out: Karpas422 Proliferation IC50 Nanomoles per Liter
[5] = test system: human diffuse large cell lymphoma B lymphocytes (Pfeiffer cell); assay: Pharmacodynamic experiment, Pfeiffer transplanted tumor model in mice; assay type: in vivo, mice (beige SCID); details: intragastrically, once a day for 21 days; for inhibition in vivo at 100 mg/kg: Mus musculus, Pfeiffer, po, 504 h, read-out: inhibited tumor growth
Description: Under sterile conditions, human diffuse large cell lymphoma B lymphocytes (Pfeiffer cell) in logarithmic growth stage were digested and mixed with Matrigel and transplanted subcutaneously on the right back of mice (beige SCID) with severe combined immunodeficiency disease.

[6] = test system: human diffuse large cell lymphoma B lymphocytes (Pfeiffer cell); assay: Pfeiffer cell proliferation, Calcein AM staining; assay type: cell-based; details: data of 14th day, read-out: Pfeiffer Proliferation IC50 Nanomoles per Liter
Description: The diffuse large cell lymphoma B lymphocytes (Pfeiffer cells) were collected and counted when growing well.

[7] = biological target: wild-type EZH2 (Homo sapiens (Human), UniProt Q15910); assay: radiometric assay, activity to wild-type EZH2 of PRC2; details: read-out: Wild-type EZH2 IC50 Nanomoles per Liter
wild-type EZH2, sequence (Q15910 whole entry): as the sequence (Q15910 whole entry Y641F) above, with F641Y counted along it
wild-type EZH2, sequence (O75530 whole entry partner): as the sequence (O75530 whole entry partner) above
wild-type EZH2, sequence (Q15022 whole entry partner): as the sequence (Q15022 whole entry partner) above
Description: 25 μL of reaction solution was transferred to a scintillation plate, which was incubated at room temperature for 1 hour (h) and washed with deionized water and 0.1% Tween 20 for three times. A PerkinElmer liquid scintillation/luminescence counter was used to read the value, and GraphPad Prism 5 was used to calculate the median inhibitory concentration (IC50) of the compounds.

[8] = biological target: Mutant type EZH2(Y641N) (Homo sapiens (Human), UniProt Q15910, Y641N); assay: AlphaLISA, mutant type PRC2 complex EZH2(Y641N); assay type: biochemical; details: read-out: Mutant type EZH2(Y641N) IC50 Nanomoles per Liter
Mutant type EZH2(Y641N), sequence (Q15910 whole entry Y641N): as the sequence (Q15910 whole entry Y641F) above, with F641N counted along it
Mutant type EZH2(Y641N), sequence (O75530 whole entry partner): as the sequence (O75530 whole entry partner) above
Mutant type EZH2(Y641N), sequence (Q15022 whole entry partner): as the sequence (Q15022 whole entry partner) above
Mutant type EZH2(Y641N), sequence (Q09028 whole entry partner): as the sequence (Q09028 whole entry partner) above
Mutant type EZH2(Y641N), sequence (Q6ZN18 whole entry partner): as the sequence (Q6ZN18 whole entry partner) above

pIC50 [1] | pIC50 [7] | pIC50 [3] | pIC50 ([4]; Homo sapiens, KARPAS-422) | pIC50 ([6]; Homo sapiens, Pfeiffer) | pIC50 [8] | AUC ([2]; male, SD, rat, plasma, rats, Intravenous-Dose 4 mg/kg) | half-life ([2]; male, SD, rat, plasma; rats, Intravenous-Dose 4 mg/kg; read-out: Half life T1/2, h) (converted)) | AUC ([2]; male, SD, rat, plasma, rats, Oral-Dose 20 mg/kg) | Cmax ([2]; male, SD, rat, plasma, rats, Oral-Dose 20 mg/kg, read-out: Blood Drug level (Cmax, ng/mL)) | bioavailability ([2]; male, SD, rat, plasma, rats, oral 20 mg/kg vs intravenous 4 mg/kg, read-out: Bioavailability (P %)) | Molecule | Area Curve (AUC, ng/mL · h) ([2]; rats, Intravenous-Dose 4 mg/kg) | Half life T1/2, h) ([2]; rats, Intravenous-Dose 4 mg/kg) | Area Curve (AUC, ng/mL · h) ([2]; rats, Oral-Dose 20 mg/kg) | Blood Drug level (Cmax, ng/mL) ([2]; rats, Oral-Dose 20 mg/kg) | Bioavailability (P %) ([2]; rats, oral 20 mg/kg vs intravenous 4 mg/kg) | IC50 [3] | pIC50 [4] | inhibited tumor growth ([5]; 100 mg/kg) | pIC50 [6] | inhibition in vivo at 100 mg/kg [5]
8.83 | 8.74 | 9.04 | 8.32 | 8.37 | 9.42 |  |  |  |  |  | CCN(c1cc(-c2ccc3c(c2)C2(CCOCC2)C(=O)N3C)cc(C(=O)NCc2c(C)cc(C)[nH]c2=O)c1C)C1CCOCC1 [Example 83, N-((4,6-dimethyl-2-oxo-1,2-dihydropyridin-3-yl)methyl)-3-(ethyl(tetrahydro-2H-pyran-4-yl)amino)-2-methyl-5-(1-methyl-2-oxo-2′,3′,5′,6′-tetrahydrospiro[dihydroindole-3,4′-pyran]-5-yl)benzamide] |  |  |  |  |  |  |  |  |  | 98%
9.24 | 8.95 |  | 8.58 | 8.86 | 9.40 |  |  |  |  |  | CCN(c1cc(-c2ccc3c(c2)NC(=O)C32CCC(C)(O)CC2)cc(C(=O)NCc2c(C)cc(C)[nH]c2=O)c1C)C1CCOCC1 (centres unmarked) [Example 93, N-((4,6-dimethyl-2-oxo-1,2-dihydropyridin-3-yl)methyl)-3-(ethyl(tetrahydro-2H-pyran-4-yl)amino)-5-(4-hydroxy-4-methyl-2′-oxospiro[cyclohexane-1,3′-dihydroindole]-6′-yl)-2-methylbenzamide] |  |  |  |  |  |  |  |  |  | 94%
9.14 | 9.09 | 9.20 | 8.67 | 8.87 |  | 966 ng·h/mL | 1.12 h | 1610 ng·h/mL | 456 ng/mL | 53.3% | CCN(c1cc(-c2ccc3c(c2)C2(CCOCC2)C(=O)N3C)cc(C(=O)NCc2c(OC)cc(C)[nH]c2=O)c1C)C1CCN(CC(F)(F)F)CC1 [Example 109, 3-(Ethyl(1-(2,2,2-trifluoroethyl)piperidin-4-yl)amino)-N-((4-methoxy-6-methyl-2-oxo-1,2-dihydropyridin-3-yl)methyl)-2-methyl-5-(1-methyl-2-oxo-2′,3′,5′,6′-tetrahydrospiro[dihydroindole-3,4′-pyran]-5-yl)benzamide] |  |  |  |  |  |  |  |  |  | 101%

Molecule | pIC50 [1] | pIC50 [7] | pIC50 [3] | pIC50 ([4]; Homo sapiens, KARPAS-422) | pIC50 ([6]; Homo sapiens, Pfeiffer) | pIC50 [8] | AUC ([2]; male, SD, rat, plasma, rats, Intravenous-Dose 4 mg/kg) | half-life ([2]; male, SD, rat, plasma; rats, Intravenous-Dose 4 mg/kg; read-out: Half life T1/2, h) (converted)) | AUC ([2]; male, SD, rat, plasma, rats, Oral-Dose 20 mg/kg) | Cmax ([2]; male, SD, rat, plasma, rats, Oral-Dose 20 mg/kg, read-out: Blood Drug level (Cmax, ng/mL)) | bioavailability ([2]; male, SD, rat, plasma, rats, oral 20 mg/kg vs intravenous 4 mg/kg, read-out: Bioavailability (P %)) | Area Curve (AUC, ng/mL · h) ([2]; rats, Intravenous-Dose 4 mg/kg) | Half life T1/2, h) ([2]; rats, Intravenous-Dose 4 mg/kg) | Area Curve (AUC, ng/mL · h) ([2]; rats, Oral-Dose 20 mg/kg) | Blood Drug level (Cmax, ng/mL) ([2]; rats, Oral-Dose 20 mg/kg) | Bioavailability (P %) ([2]; rats, oral 20 mg/kg vs intravenous 4 mg/kg) | IC50 [3] | pIC50 [4] | inhibited tumor growth ([5]; 100 mg/kg) | pIC50 [6] | inhibition in vivo at 100 mg/kg [5]
3-(ethyl(tetrahydro-2H-pyran-4-yl)amino)-5-(6-fluoro-2,2′,3,3′,5′,6′-hexahydrospiro[indene-1,4′-pyran]-5-yl)-N-((4-methoxy-6-methyl-2-oxo-1,2-dihydropyridin-3-yl)methyl)-2-methylbenzamide 9-1 and 3-(ethyl(tetrahydro-2H-pyran-4-yl)amino)-5-(5-fluoro-2,2′,3,3′,5′,6′-hexahydrospiro[indene-1,4′-pyran]-6-yl)-N-((4-methoxy-6-methyl-2-oxo-1,2-dihydropyridin-3-yl)methyl)-2-methylbenzamide 9-2 [Example 9] | 9.28 | 9.15 |  |  |  |  |  |  |  |  |  | 926.01 ng·h/mL | 1.54 h | 1522.36 ng·h/mL | 437.25 ng/mL | 32.88% | 0.37 nM | 8.74 | 97% | 9.38 | 
